{"source": "patent US20250154457A1", "about": "“T-CELLS FOR ANTI-HIV CAR-T THERAPY AND METHODS OF USE” (City of Hope, priority 2021, published 2025)", "assay_type_in_all_cases": "cell-based", "key": {"T-cells [1]": {"test_system": "T-cells", "assay": "Growth and phenotype of enrichment anti-HIV CAR T-cells after 6TG selection"}, "T-cells [2]": {"test_system": "T-cells", "assay": "6TG dose titration and multi-dosing selection of enrichment anti-HIV CAR T-cells", "description": "The cell counts of the T-cells, in addition to anti-HIV CAR expression percentage were measured over the course of culturing."}, "[3]": {"test_system": "gp160-expressing HEK293 cells", "assay": "CD69 activation of 6TG enriched anti-HIV CAR Jurkat cells co-cultured with gp160-expressing HEK293 cells", "conditions": "24 hour incubation, 6TG selected vs unselected anti-HIV CAR Jurkat cells", "description": "Following a 24 hour incubation, CD69 expression was analyzed."}, "Jurkat cells": {"test_system": "Jurkat cells", "assay": "6TG selection of shHPRT-N6 CAR expressing Jurkat cells", "conditions": "Jurkat cells, 0, 1, or 3 uM 6TG for four days, trypan blue", "description": "(§1) FIGS. 2A-2D. 6TG selection of HPRT repressed CAR T-cells. FIG. 2A. Quantitative PCR analysis of HPRT expression following transfection of shHPRT plasmid. Untransfected Jurkat cells were used as a control. FIG. 2B. N6 CAR (control) or shHPRT-N6 CAR were transduced into Jurkat cells and co-cultured with either gp120 expressing HEK293 cells or HEK293 parental cells for 24 hours. Following incubation, the Jurkat cells were analyzed for CD69 expression by flow cytometry. FIG. 2C."}, "HPRT": {"test_system": "HPRT", "assay": "Quantitative PCR of HPRT expression after transfection of shHPRT plasmid in Jurkat cells", "conditions": "transfected with shHPRT plasmid, FIG. 2A", "description": "as §1"}, "CCR5": {"test_system": "CCR5", "assay": "CCR5 knockdown in Magi.CCR5 reporter cells (PCR and flow cytometry)", "source_text": "FIGS. 5A-5C. Wobble base CCR5 shRNAs functionality. FIG. 5A. Quantitative PCR analysis of MAGI.CCR5 cells transduced with protection CAR (shCCR5w shTat/Rev anti-HIV CAR), compared to mock-transduced cells and cells transduced with conventional anti-HIV CAR without the shRNA. Decreased levels of CCR5 mRNA indicate successful knock-down using the protection CAR. FIG. 5B. CCR5 surface expression on MAGI.CCR5 cells transduced with the protection CAR compared to CCR5 expression on mock-transduced cells and on cells transduced with anti-HIV CAR without the shRNA. FIG. 5C. CCR5 surface expression on T-cells transduced with protection CAR (shCCR5w shTat/Rev anti-HIV CAR), compared to mock-transduced cells and cells transduced with conventional anti-HIV CAR without the shRNA. Decreased levels of CCR5 are indicative of successful knockdown using anti-CCR5 shRNA.\nNext, Applicant determined whether the shRNAs were functional. To test the shCCR5, Applicant transfected the protection and conventional CAR into Magi reporter line expressing CCR5 (Magi.CCR5). […] To confirm knock-down of CCR5, Applicant transduced T-cells with protection and conventional anti-HIV CAR constructs and analyzed CCR5 surface expression."}}}
{"compound": "Nc1nc(=S)c2[nH]cnc2[nH]1", "note": "[6TG, 6-thioguanine]", "values": [{"measurement": "growth of anti-HIV CAR T-cells", "setting": "T-cells [1]; 6TG-treated vs not subjected to 6TG", "result": "equivalent"}, {"measurement": "total T-cell growth", "setting": "T-cells [1]; after treatment with 6TG", "result": "decreased over the course of culture"}, {"measurement": "exhaustion markers (PD-1, Tim3, Lag-3)", "setting": "T-cells [1]; following 6TG treatment", "result": "No noticeable changes"}, {"measurement": "enrichment of anti-HIV CAR T-cells at 50 nM", "setting": "T-cells [2]; 50 nM 6TG, single dose titration", "result": "most enrichment potential"}, {"measurement": "effect on cell counts at 100 nM", "setting": "T-cells [2]; 100 nM 6TG", "result": "loss of a number of T-cells transduced with the enrichment anti-HIV CAR construct"}, {"measurement": "effect on cells at 1 M 6TG", "setting": "T-cells [2]; 6TG, data not shown", "result": "loss of all T-cells"}, {"measurement": "effect on cell counts at 10, 20, and 50 nM", "setting": "T-cells [2]; 10, 20, and 50 nM 6TG", "result": "exerted toxic effects on the non-transduced T-cells"}, {"measurement": "optimized dose of 6TG to enrich CAR T-cells", "setting": "T-cells [2]; without impacting growth", "result": 50, "unit": "nM"}, {"measurement": "activation as assessed by CD69 levels", "setting": "[3]", "result": "decrease in activation"}, {"measurement": "cell counts and viability after 6TG", "setting": "Jurkat cells", "result": "eliminates cells that lack the anti-HPRT shRNA"}]}
{"compound": "anti-HPRT shRNA: shRNA that downregulates expression of the HPRT gene, SEQ ID NO:12 (GCACUGAAUAGAAAUGGUGGUUCAAGAGAUCACUAUUUCUAUUCAGUGCUU)", "values": [{"measurement": "HPRT expression", "setting": "HPRT", "result": "robustly repressed"}]}
{"compound": "shCCR5w: anti-CCR5 shRNA wobble base, SEQ ID NO: 11 (AGUGUCAAGUCCAAUUUGUGGUUCAAGAGAUCAUAGAUUGGACUUGACACUUU)", "values": [{"measurement": "CCR5 knockdown", "setting": "CCR5", "result": "successful in knocking down CCR5"}]}
